Patent US20100099762A1, “COMBINATION THERAPY” (THE MENTAL HEALTH RESEARCH INSTITUTE OF VICTORIA, priority 2006, published 2010)

Tested on: total glutathione levels
Assay: Total glutathione in striatum and liver of rats after CHX depletion
Assay type: in vivo, Sprague-Dawley rats
Conditions: 400 mg/kg i.p. 90 minutes after CHX 75 mg/kg; killed 1 hour after treatment
Experimental: Male Sprague-Dawley rats aged nine weeks and weighing an average of 390 g, were used in the study. Animals were maintained on a twelve hour light-dark cycle with water and food ad libitum. Two animals were housed per cage with room temperature maintained at 22° C.
All pharmacological agents were administered by intraperitoneal injection (i.p.) in a volume of 1 ml/kg, except where otherwise stated. All agents were prepared using saline as a diluent. Brain GSH depletion was performed using cyclohexene-1-one (CHX), administered at 75 mg/kg. Animals were returned to their cage for 90 minutes prior to administration of N-acetyl cysteine (NAC) or N-acetyl cysteine amide (NACA or “AD4”). Animals were killed by decapitation 1 hour after NACA or NAC treatment.
Frontal cortex, striatum and liver samples were immediately excised on ice, weighed and sonicated in SSA buffer (5% sulfosalicylic acid in 100 mM disodium hydrogen orthophosphate, 100 mM sodium dihydrogen orthophosphate and 1 mM EDTA, pH 7.5, 5 mL/g wet tissue). The samples were subsequently centrifuged (22×10^3 g for 10 minutes, 4° C.) and the […] was taken and frozen at −80° C. until analysed.
Total glutathione levels (μmol GSH/gram tissue) were determined in all samples. Samples were assayed according to Baker et al. (1990). Reduced glutathione standards ranging from 0 to 320 ρmol of GSH in 50 μL were prepared in a background buffer identical to the samples (SSA buffer) and then treated in parallel with samples. 50 μl of sample or standard was placed on a 96-well microtiter plate with 100 μL of assay reagent (final concentration in well; 0.15 mM DTNB, 0.2 mM NADPH, 1.0 U glutathione reductase/mL). Plates were assayed for a total of 2 minutes at 414 nm using a Multiskan MCC/340 MK II plate reader and Genesis V3.05 computer software. All chemicals were purchased from Sigma-Aldrich. Statistical evaluation of the data was conducted using analysis of variance (ANOVA).

## CC(=O)N[C@@H](CS)C(=O)O [NAC, N-acetyl cysteine]
  Total glutathione levels in the brain striatum after CHX depletion: rescue
  Total glutathione levels in the liver after CHX depletion: rescue
